Laboratory results as given in patent publication US8785594B2, “Glycoproteins and glycosylated cells and a method for the preparation of the same” (Glycom A/S, priority 2007, dated 2014).

Test system: human breast cancer-cell line
Test: Flow cytometry with fluorescent labeled-lectin of modified cells (Examples 8-10)
Format: cell-based
Conditions: 25 mg, PBS, 3 h at 37° C.
Protocol: α-Gal epitope-cyclic carbamate 6 (disaccharide) (25 mg) and human breast cancer-cell line 7 (2×10^6 number cell) were mixed in PBS buffer (5 mL) (see FIG. 3). The mixture was kept for 3 h at 37° C., and then the mixture was subjected to centrifugation to separate the cells from the medium.
α-Gal epitope-carbamate 6 (disaccharide) (25 mg) and human breast cancer-cell line 7 (1×10^6 number cell) were mixed in PBS buffer (5 mL) (see FIG. 3). The mixture was kept for 3 h at 37° C., and then the mixture was subjected to centrifugation to separate the cells from the medium.
α-Gal epitope-carbamate 6 (disaccharide) (25 mg) and human breast cancer-cell line 7 (5×10^5 number cell) were mixed in PBS buffer (5 mL) (see FIG. 3). The mixture was kept for 3 h at 37° C., and then the mixture was subjected to centrifugation to separate the cells from the medium.

Measured: Modification of cells shown with fluorescent labeled-lectin

O=C1NC2OC(CO)C(O)C(OC3OC(CO)C(O)C(O)C3O)C2O1 (stereo not drawn) [Compound 6, α-Gal epitope-cyclic carbamate]
modification has been proven: 1×10^6 cells | 2×10^6 cells | 5×10^5 cells
